Results as given in PMC11289882, “Site-directed allostery perturbation to probe the negative regulation of hypoxia inducible factor-1α” (RSC Chemical Biology, 2024).
Like-named read-outs stand apart in the source and are kept apart here. Non-standard residues stand in square brackets, D forms with d. Residues, ends and D or L forms follow the SMILES beside them. β3hE = N[C@@H](CCC(=O)O)CC(=O)O; β3hD = NC(CC(=O)O)CC(=O)O

Columns and labels:
[1] = target: p300/CBP; set-up: method as in ref 2 (a number printed in a supplementary file, which may have a reference list of its own: not looked up in the article's list); details: ITC, 68% confidence intervals in brackets; read-out: Direct binding to p300/CBP, KD; cited from earlier work
[2] = target: p300-HIF-1α complex; set-up: method as in ref 2 (a number printed in a supplementary file, which may have a reference list of its own: not looked up in the article's list); details: ITC titration against p300-HIF-1α complex, 68% confidence intervals in brackets; read-out: Competition with HIF-1α, KD, apparent; cited from earlier work
[3] = target: p300/CBP; set-up: method as in ref 1 (a number printed in a supplementary file, which may have a reference list of its own: not looked up in the article's list); details: bio-layer interferometry; read-out: Direct binding to p300/CBP, KD; cited from earlier work
[4] = target: CBP bound Alexa594-HIF-1α; set-up: method as in 3 sources, one per row (each row's own in cited_ref): ref 1 (a number printed in a supplementary file, which may have a reference list of its own: not looked up in the article's list) ||| ref 3 (a number printed in a supplementary file, which may have a reference list of its own: not looked up in the article's list) ||| ref 4 (a number printed in a supplementary file, which may have a reference list of its own: not looked up in the article's list); details: FA titration against CBP bound Alexa594-HIF-1α; read-out: Competition with HIF-1α, KD, apparent; cited from earlier work
[5] = target: CBP bound Alexa594-CITED2; set-up: method as in 3 sources, one per row (each row's own in cited_ref): ref 1 (a number printed in a supplementary file, which may have a reference list of its own: not looked up in the article's list) ||| ref 3 (a number printed in a supplementary file, which may have a reference list of its own: not looked up in the article's list) ||| ref 4 (a number printed in a supplementary file, which may have a reference list of its own: not looked up in the article's list); details: FA titration against CBP bound Alexa594-CITED2; read-out: Direct binding to p300/CBP, KD, apparent; cited from earlier work
[6] = test system: p300–HIF-1α complex; assay: NMR competition, p300 with equimolar HIF-1α and CITED2 peptide (1H–15N HSQC); format: binding, human; details: 13C,15N-p300_330–424, 1.2 eq of each peptide, 10 mM Tris pH 6.9, 50 mM NaCl, 1 mM DTT, 298 K
Procedure: To investigate the reversibility of the competition, samples containing p300 with equimolar amounts of HIF-1α and CITED2_218–256 or CITED2ΔN were prepared. […] (Table S1, ESI ^†). […]
a = KHIF + KCIT + [HIF]t + [CIT]t − [P]t (16)
b = KHIFKCIT + KHIF([CIT]t − [P]t) + KCIT([HIF]t − [P]t) (17)
KHIF = dissociation constant for Flu-HIF-1α, KCIT = dissociation constant for the competitor CITED2 or variant, [CIT]t = total concentration of the competitor CITED2 or variant, [P]t = total concentration of […]
Fitted parameters were: KHIF, KCIT, [HIF]t, [P]t, rP:HIF, rHIF from which KHIF, rP:HIF, rHIF, [HIF]t were kept constant during fitting. KHIF, rP:HIF, rHIF was determined in a separate experiment using HIF-1α776-826 as a competitor
(Fig. S3) [HIF]t was determined using fluorescence intensity measurements relative to a fluorescein calibration curve. [P]t was kept as a floating parameter to account for incompetent protein fraction.
Anisotropy values were normalized and represented as ligand-bound (Lb) values (Eq. 19.) L = (r − rHIF) ∗ [HIF] (19) […]
into three samples: to the first CITED2224-256 was added, to the second CITED2218-256 was added in 1.2 equivalent relative to p300 concentration, and to the third, same volume of buffer was added, and concentrated down to final sample volume. Concentrations were determined based on UV absorbance at 280 nm for p300 and CITED2 variants and at 205 nm for HIF-1α. […]

[7] = target: T1, p300_330–420 (TAZ1 domain) (Homo sapiens, UniProt Q09472); assay: ITC direct titration to p300; format: binding; details: 5 µM p300_330–420 in cell, 60 µM ligand in syringe, 35 °C, 40 mM Na-phosphate pH 7.5, 100 mM NaCl, 1 mM DTT, global fit with ternary intermediate model, 68% confidence intervals in brackets, read-out: Direct binding to p300, K d
T1 construct: from residues 330-420 (used for FA and ITC experiments); GST (N, cleaved yes); made in house; host or cells: E. coli BL21 pLysS (pGEX-4T-1)
T1 sequence (Q09472 330-420): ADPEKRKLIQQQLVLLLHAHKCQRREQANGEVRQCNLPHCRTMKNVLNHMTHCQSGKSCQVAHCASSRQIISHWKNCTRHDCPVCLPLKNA

[8] = target: T2, p300–Flu-HIF-1α (Homo sapiens, UniProt Q09472); assay: Fluorescence anisotropy competition against p300–Flu-HIF-1α; format: binding; details: 50 nM p300_330–420, 25 nM Flu-HIF-1α786–826 tracer, 40 mM Na-phosphate, 100 mM NaCl, 1 mM DTT, 0.01% Triton-X, pH 7.4, 10 min at 35 °C; fixed KD = 64 nM for tracer; three repeats; read-out: Kd,app FA competition against p300–Flu-HIF-1α
T2 construct: from residues 330-420 (used for FA and ITC experiments); GST (N, cleaved yes); made in house; host or cells: p300: E. coli BL21 pLysS (pGEX-4T-1); tracer peptide: solid-phase synthesis
T2 sequence (Q09472 330-420): as above

**Q.** With “CITED2216-248: CITED2 residues 216–248, previously reported (NVIDTDFIDEEVLMSLVIEMGLDRIKELPELWL; UniProt Q99967 216-248, looked up, fragment)” as the compound, how does the Kd [1] read?
**A.** 303 nM

**Q.** What about the Kd [2] of the same compound?
**A.** 47 nM

**Q.** For HIF-1α786-826: HIF-1α residues 786–826, which Kd [1] is on record?
**A.** 43 nM

**Q.** With “CITED2216-269: CITED2 residues 216–269, previously reported (NVIDTDFIDEEVLMSLVIEMGLDRIKELPELWLGQNEFDFMTDFVCKQQPSRVS; UniProt Q99967 216-269, looked up, fragment)” as the compound, how does the Kd [3] read?
**A.** 9 ± 2 nM

**Q.** And the Kd [4]?
**A.** 0.2 ± 0.1 nM

**Q.** And the Kd [5]?
**A.** 10 ± 1 nM

**Q.** And the Kd [1]?
**A.** 26 nM

**Q.** What about the Kd [2] of the same compound?
**A.** 1.1 nM

**Q.** Which Kd [4] does the source give for “CITED2216-246: CITED2 residues 216–246, previously reported (NVIDTDFIDEEVLMSLVIEMGLDRIKELPEL; UniProt Q99967 216-246, looked up, fragment)” here?
**A.** 210 ± 20 nM

**Q.** What about the Kd [5] of the same compound?
**A.** 5000 ± 1000 nM

**Q.** Which “Species observed in sample with equimolar HIF-1α and CITED2 peptide (reversibility of competition)” value [6] does the source give for “CITED2_224–259: CITED2 residues 224–259, longer C terminus, without N-terminal tail (DEEVLMSLVIEMGLDRIKELPELWLGQNEFDFMTDF; UniProt Q99967 224-259, looked up, fragment)” here?
**A.** did not influence competition efficiency or unidirectionality

**Q.** What about the Kd [1] of the same compound?
**A.** 9 nM

**Q.** What about the Kd [2] of the same compound?
**A.** 12 nM

**Q.** What does the source list for `CC[C@H](C)[C@H](NC(C)=O)C(=O)N[C@@H](CC(=O)O)C(=O)N[C@H](C(=O)N[C@@H](CC(=O)O)C(=O)N[C@@H](Cc1ccccc1)C(=O)N[C@H](C(=O)N[C@@H](CC(=O)O)C(=O)N[C@@H](CCC(=O)O)C(=O)N[C@@H](CCC(=O)O)C(=O)N[C@H](C(=O)N[C@@H](CC(C)C)C(=O)N[C@@H](CCSC)C(=O)N[C@@H](CO)C(=O)N[C@@H](CC(C)C)C(=O)N[C@H](C(=O)N[C@H](C(=O)N[C@@H](CCC(=O)O)C(=O)N[C@@H](CCSC)C(=O)NCC(=O)N[C@@H](CC(C)C)C(=O)N[C@@H](CC(=O)O)CC(=O)N[C@H](C(=O)N[C@@H](CCC(=O)O)CC(=O)N[C@@H](CC(C)C)C(=O)N1CCC[C@H]1C(=O)N[C@@H](CCC(=O)O)C(=O)N[C@@H](CC(C)C)C(=O)N[C@@H](Cc1c[nH]c2ccccc12)C(=O)N[C@@H](CC(C)C)C(=O)NCC(=O)N[C@@H](CCC(N)=O)C(=O)N[C@@H](CC(N)=O)C(=O)N[C@@H](CCC(=O)O)C(=O)N[C@@H](Cc1ccccc1)C(=O)N[C@@H](CC(=O)O)C(=O)N[C@@H](Cc1ccccc1)C(=O)N[C@@H](CCSC)C(N)=O)[C@@H](C)CC)[C@@H](C)CC)C(C)C)C(C)C)[C@@H](C)CC)[C@@H](C)O` [3c] (Ac-IDTDFIDEEVLMSLVIEMGL[β3hD]I[β3hE]LPELWLGQNEFDFM-NH2)?
**A.** Kd [7]: 29 nM; Kd [8]: 76 ± 6 nM

**Q.** For `CC[C@H](C)[C@H](NC(C)=O)C(=O)N[C@@H](CC(=O)O)C(=O)N[C@H](C(=O)N[C@@H](CC(=O)O)C(=O)N[C@@H](Cc1ccccc1)C(=O)N[C@H](C(=O)N[C@@H](CC(=O)O)C(=O)N[C@@H](CCC(=O)O)C(=O)N[C@@H](CCC(=O)O)C(=O)N[C@H](C(=O)N[C@@H](CC(C)C)C(=O)N[C@@H](CCSC)C(=O)N[C@@H](CO)C(=O)N[C@@H](CC(C)C)C(=O)N[C@H](C(=O)N[C@H](C(=O)N[C@@H](CCC(=O)O)C(=O)N[C@@H](CCSC)C(=O)NCC(=O)N[C@@H](CC(C)C)C(=O)N[C@@H](CC(=O)O)CC(=O)N[C@@H](CCCNC(=N)N)C(=O)N[C@H](C(=O)N[C@@H](CCCCN)C(=O)N[C@@H](CCC(=O)O)CC(=O)N[C@@H](CC(C)C)C(=O)N1CCC[C@H]1C(=O)N[C@@H](CCC(=O)O)CC(=O)N[C@@H](CC(C)C)C(=O)N[C@@H](Cc1c[nH]c2ccccc12)C(=O)N[C@@H](CC(C)C)C(=O)NCC(=O)N[C@@H](CCC(N)=O)C(=O)N[C@@H](CC(N)=O)C(=O)N[C@@H](CCC(=O)O)C(=O)N[C@@H](Cc1ccccc1)C(=O)N[C@@H](CC(=O)O)C(=O)N[C@@H](Cc1ccccc1)C(=O)N[C@@H](CCSC)C(N)=O)[C@@H](C)CC)[C@@H](C)CC)C(C)C)C(C)C)[C@@H](C)CC)[C@@H](C)O` [3a] (Ac-IDTDFIDEEVLMSLVIEMGL[β3hD]RIK[β3hE]LP[β3hE]LWLGQNEFDFM-NH2), which Kd [7] is on record?
**A.** 675 nM

**Q.** What about the Kd [8] of the same compound?
**A.** > 600 nM
